Measurements reported in patent US11666594B2, “Antibody-drug conjugates comprising a cyclic dinucleotide” (TAKEDA PHARMACEUTICAL COMPANY LIMITED, priority 2016, dated 2023).
Structures can show the parent of a compound that is named as a salt.

System: IRF3 phosphorylation in FaDu cell
Assay: Phosphorylated IRF3 protein detection in FaDu cell
Assay type: cell-based, human
Conditions: at 30 μM; 6 hr; 2′,3′-cGAMP 30 μM = 100%
Protocol: Human larynx cancer cell line FaDu cell (ATCC) was seeded, the medium was replaced with serum free medium one day after the seeding. After the replacement, the cell was cultured for one day, and to the cell were added the natural ligand 2′,3′-cGAMP (the final concentration; 30 μM) and test compound (the final concentration; 15 μM or 30 μM). 6 hr after the addition, the cell was washed with PBS, the cell extract was prepared, and the phosphorylated IRF3 protein was detected by ELISA method or Western blotting method. The IRF3 protein phosphorylation activity of the test compound was calculated when the value in the sample with adding the natural ligand 2′,3′-cGAMP at the final concentration of 30 μM was considered as 100%.

## Nc1ncnc2c1ncn2[C@@H]1O[C@@H]2COP(=O)(O)O[C@@H]3[C@H](O)[C@@H](COP(=O)(S)O[C@H]2[C@H]1F)O[C@H]3n1cc(F)c2c(=O)[nH]cnc21 (stereo partly drawn) [Example 2, 7-((5R,7R,8R,12aR,14R,15R,15aR,16R)-14-(6-amino-9H-purin-9-yl)-15-fluoro-10,16-dihydroxy-2,10-dioxido-2-sulfanyloctahydro-12H-5,8-methanofuro[3,2-1][1,3,6,9,11,2,10]pentaoxadiphosphacyclotetradecin-7-yl)-5-fluoro-3,7-dihydro-4H-pyrrolo[2,3-d]pyrimidin-4-one di-triethylamine salt (Optical Isomer)]
  activity level of test compound (IRF3 protein phosphorylation): 88.7% at 30 μM
